Measurements as given in PubChem BioAssay AID366 (MTDP, 2006).
Values joined by “and” are separate entries in the source; they are usually repeats but may differ in a detail not shown here. Equal values may be shown once. Active and inactive are the calls of the source. No rule for the calls is given here.

Target: Ribonuclease H1 (Homo sapiens) (UniProt O60930)
Experiment: human RNase H1 inhibitors, dose response, biochemical, FRET RNA/DNA duplex cleavage (AID 366);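 also: potency is for inhibitors that lower RNA cleavage and so lower fluorescence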
Conditions: fluorescence

Sequence of Ribonuclease H1 (Homo sapiens) (O60930 whole entry, looked up): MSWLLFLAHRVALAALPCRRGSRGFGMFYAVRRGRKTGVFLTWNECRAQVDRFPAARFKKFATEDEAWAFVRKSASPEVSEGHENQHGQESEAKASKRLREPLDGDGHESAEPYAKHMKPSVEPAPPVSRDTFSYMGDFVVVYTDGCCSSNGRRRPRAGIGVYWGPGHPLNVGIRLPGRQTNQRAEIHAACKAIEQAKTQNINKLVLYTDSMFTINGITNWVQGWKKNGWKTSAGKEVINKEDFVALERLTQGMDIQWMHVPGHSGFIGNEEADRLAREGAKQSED

Compound	IC50
CC(C)=CCC[C@]1(C)[C@@H](CC=C(C)C)C[C@@]2(CC=C(C)C)C(=O)/C(=C(\O)c3ccc(O)c(O)c3)C(=O)[C@]1(CC=C(C)C)C2=O	3200 nM
Oc1ccc(/C=N/Nc2nncc(-c3ccccc3)n2)c(O)c1O	1100 nM
O=C1CC(=O)c2ccc3c4c(ccc1c24)C(=O)CC3=O	400 nM
Cc1ccc(-c2n[nH]c(=S)n2/N=C/c2ccc(O)c(O)c2O)cc1	inactive
O=C1c2cc([N+](=O)[O-])ccc2-c2ccc3c4ccc5c6c(ccc(c7ccc1c2c73)c64)C(=O)c1cc([N+](=O)[O-])ccc1-5	400 nM
O=C1C=CC(=NS(=O)(=O)c2ccc(Cl)c([N+](=O)[O-])c2)C=C1	2100 nM
O=c1[nH]c2[nH]c(=S)[nH]c(=S)c2[nH]1	9000 nM
CC1=C(C)CC(C(=O)Nc2ccc(N3C(=O)c4ccccc4C3=O)cc2)C(C(=O)O)C1 (stereo not drawn)	inactive
CCCCCCCCCCCCCCCCCCOCC(O)CO (stereo not drawn)	> 100000 nM (inactive)
COc1ccc2c(c1)N(C(=O)CN1C(=O)c3ccccc3C1=O)C(C)(C)c1ssc(=S)c1-2	inactive
Cc1cc(I)c2c(c1)C1C=CCC1C(C(=O)O)N2 (stereo not drawn)	inactive
Cc1ccc(-n2c(/C=C/c3ccc(O)c(O)c3)nc3ccccc3c2=O)cc1	7300 nM
CCCc1cc(=O)oc2c3c(c4c(c12)OC(C)(C)C=C4)O[C@@H](C)[C@H](C)[C@@H]3F	6800 nM
Cc1ccc(C)n1-c1ccc(O)c(C(=O)O)c1	900 nM
CC(=O)C1=C(O)[C@@]2(O)C(=O)c3c(c(C)c4ccc(C)c(O)c4c3O)C[C@H]2[C@@H](N)C1=O	700 nM
O=c1oc2ccccc2c(O)c1/C=C1\C=Nc2ccccc21	9700 nM
COC(=O)c1cc2c3c(ccc2[nH]1)N(C(=O)c1cc2c4c(ccc2[nH]1)N(C(=O)c1cc2c5c(ccc2[nH]1)N(C(N)=O)CC5)CC4)CC3	800 nM
O=C1C=CC(=O)C(c2cc(Cl)ccc2Cl)=C1	3000 nM
COc1ccccc1NC(=O)c1c(NC(=O)Cc2ccccc2)sc2c1CCCCC2	480 nM
Cc1ccc(NC(=O)c2c(NC(=O)C(F)(F)F)sc(-c3ccccc3)c2C)c(C)c1	7500 nM

Compound	IC50
CC(C)=CCC/C(C)=C/Cc1cc(/C=C/c2cc(O)c(C/C=C(\C)CCC=C(C)C)c(O)c2)cc(O)c1O	1300 nM
Cc1ccc(-c2c(C#N)c(SCC(=O)c3ccc(O)c(O)c3)nc3c2CCCC3)o1	1500 nM
COc1cccc(-c2nc3cc(NC(=O)/C=C\c4ccccc4)ccc3o2)c1	800 nM
Oc1cc(O)c2cc(O)c(-c3ccc(O)c(O)c3)[o+]c2c1	100 nM
Cc1cc(-c2ccc(C=C3C(=O)NC(=S)NC3=O)o2)c([N+](=O)[O-])cc1C	4000 nM
O=C(O)c1c(Br)c(Br)c(Br)c(Br)c1C1c2ccc(O)cc2Oc2cc(O)ccc21	900 nM
O=[N+]([O-])c1ccc2c(N=Nc3ccc4ccccc4c3O)c(O)cc(S(=O)(=O)O)c2c1	300 nM
Cc1sc2nc(-c3ccc([N+](=O)[O-])cc3)[nH]c(=O)c2c1C	900 nM
O=C(N/N=C/c1ccc(/C=N/NC(=O)c2ccc(O)c(O)c2)cc1)c1ccc(O)c(O)c1	40 nM
Nc1nc(Sc2ccc([N+](=O)[O-])c3nonc23)c2[nH]cnc2n1	inactive
O=C1c2ccccc2C(=O)c2c(NC3CCCCC3)ccc(Nc3ccc(S(=O)(=O)O)cc3)c21	2200 nM
COc1ccc(-c2c(C#N)c(N)nc(SCC(=O)c3ccc(O)c(O)c3)c2C#N)cc1	1100 nM
C[C@@H]1[C@H](O)c2c(c3c(c4c(-c5ccccc5)cc(=O)oc24)OC(C)(C)C=C3)O[C@@H]1C	4800 nM
O=C1NC(=S)N(c2ccccc2F)C(=O)/C1=C/c1ccc(I)o1	3000 nM
O=[N+]([O-])c1c(Cl)cccc1-c1c[nH]cc1Cl	> 100000 nM (inactive)
Cc1ccc(S(=O)(=O)/N=C2\C=C(Sc3ncn[nH]3)C(=O)c3ccccc32)cc1	9200 nM
O=C1O/C(=C(/C(=O)O)c2ccc(O)cc2)C(O)=C1c1cc2c3c(c(O)cc(C4=C(O)/C(=C(\C(=O)O)c5ccc(O)cc5)OC4=O)c3c1)OC2=O	600 nM
Cc1cc(O)c2c(c1O)C(=O)c1cccc(O)c1C2=O	inactive
COc1cc(C=O)ccc1OCCCOc1cccc(Oc2ccccc2)c1	6000 nM
O=C1NC(=S)N(c2ccccc2F)C(=O)/C1=C/c1ccc(OCc2cccc(C(=O)O)c2)cc1	9000 nM

Compound	IC50
O=C(Nc1sc2c(c1C(=O)Nc1cccc3ccccc13)CCCCC2)c1ccccc1F	4800 nM
O=c1c(O)c(-c2ccc(O)c(O)c2)oc2cc(O)cc(O)c12	3000 nM
O=[N+]([O-])c1ccc(S(=O)(=O)Cc2ccccc2)c2nonc12	5000 nM
C[C@]12Cc3cnc(-c4ccccc4)nc3C[C@@H]1CC[C@@H]1[C@@H]2CC[C@@]2(C)[C@H]1CC[C@]2(C)O	2800 nM
CCCc1cc(=O)oc2c3c(c4c(c12)OC(C)(C)C=C4)O[C@H](C)[C@@H](C)[C@H]3OC	4900 nM
O=C1NC(=O)/C(=C/c2ccc(-c3ccc(O)c(C(=O)O)c3)o2)S1	200 nM
Cc1ccc(C2COc3cc(O)c(O)cc3C2)cc1 (stereo not drawn)	4800 nM
Oc1c(Br)cc(/C=N/Nc2nnc3c(n2)[nH]c2ccccc23)c(Br)c1O	300 nM
COc1cc(-c2[o+]c3cc(O)cc(O)c3cc2O)cc(O)c1O	2400 nM and 4000 nM
O=C(NC(=S)Nc1cc(-c2nc3ccccc3s2)ccc1Cl)c1ccc(F)cc1	800 nM
O=C1C(Cl)=C(Nc2ccc(S(=O)(=O)Nc3ccccn3)cc2)C(=O)c2ccccc21	inactive
O=C1C=C/C(=N\S(=O)(=O)c2cc(Cl)ccc2Cl)C=C1Cl	1600 nM
Cc1cc(=O)c2c(O)c3c(O)cc(O)c4c5c(O)cc(O)c6c(O)c7c(=O)cc(C)c8c1c2c(c34)c(c65)c78	1100 nM
COc1ccc(N2C(=O)/C(=C/c3ccc(I)o3)C(=O)NC2=S)cc1	1200 nM
COC(=O)c1cc2cc3cc4cc(CC(=O)O)c(C(=O)/C=C(\O)c5ccccc5O)c(OC)c4c(OC)c3c(O)c2c(=O)o1	1200 nM
Nc1cc(S(N)(=O)=O)ccc1SSc1ccc(S(N)(=O)=O)cc1N	inactive
CC1=C(CCC(=O)O)c2cc3nc(cc4[nH]c(cc5[nH]c(cc1n2)c(C)c5C(C)O)c(C)c4C(C)O)C(C)=C3CCC(=O)O (stereo not drawn)	400 nM
CC1Oc2cc3c(-c4c(O)cc(O)c5c(O)c6c(cc45)OC(C)C(C)C6=O)c(O)cc(O)c3c(O)c2C(=O)C1C (stereo not drawn)	2700 nM
